Data as given in publication doi:10.1101/2023.03.24.534094v2 (biorxiv, 2023).
Read-outs that look alike come from different tables or passages of the source.

Assays:
Test in all cases: biochemical
p38a = p38a (Homo sapiens, UniProt Q16539)
NDR2 = NDR2 (Homo sapiens, UniProt Q9Y2H1)
CLK3 = CLK3 (Homo sapiens, UniProt P49761)
PLK4 = target: T1, PLK4 (Homo sapiens, UniProt O00444)
T1 sequence (O00444 1-970): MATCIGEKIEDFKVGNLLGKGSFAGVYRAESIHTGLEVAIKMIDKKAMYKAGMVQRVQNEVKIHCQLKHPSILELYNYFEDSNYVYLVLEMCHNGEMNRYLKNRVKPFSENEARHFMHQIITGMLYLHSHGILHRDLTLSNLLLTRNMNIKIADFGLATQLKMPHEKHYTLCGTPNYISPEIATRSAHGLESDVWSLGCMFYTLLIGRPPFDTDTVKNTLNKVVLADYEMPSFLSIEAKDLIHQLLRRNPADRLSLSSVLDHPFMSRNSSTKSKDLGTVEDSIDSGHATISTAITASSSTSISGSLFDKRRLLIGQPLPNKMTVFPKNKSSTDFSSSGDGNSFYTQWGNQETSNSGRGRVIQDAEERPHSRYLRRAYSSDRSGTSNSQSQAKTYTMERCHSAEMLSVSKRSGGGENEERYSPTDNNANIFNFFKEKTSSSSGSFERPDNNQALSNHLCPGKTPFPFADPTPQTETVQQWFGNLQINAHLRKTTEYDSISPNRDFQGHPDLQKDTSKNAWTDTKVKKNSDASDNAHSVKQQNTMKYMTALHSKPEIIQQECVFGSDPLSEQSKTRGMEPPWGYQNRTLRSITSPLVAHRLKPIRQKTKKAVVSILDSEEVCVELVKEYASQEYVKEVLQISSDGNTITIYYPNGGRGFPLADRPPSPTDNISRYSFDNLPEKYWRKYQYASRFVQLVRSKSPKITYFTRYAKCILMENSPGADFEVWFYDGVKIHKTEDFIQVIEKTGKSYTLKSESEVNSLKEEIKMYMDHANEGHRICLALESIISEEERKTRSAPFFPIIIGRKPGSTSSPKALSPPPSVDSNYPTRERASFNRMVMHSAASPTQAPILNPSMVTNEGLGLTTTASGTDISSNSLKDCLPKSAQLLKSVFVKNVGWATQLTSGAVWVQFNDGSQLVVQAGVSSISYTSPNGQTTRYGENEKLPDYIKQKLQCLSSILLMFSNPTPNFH

CK1d = CK1d (Homo sapiens, UniProt P48730)
CK1d, sequence (P48730 whole entry): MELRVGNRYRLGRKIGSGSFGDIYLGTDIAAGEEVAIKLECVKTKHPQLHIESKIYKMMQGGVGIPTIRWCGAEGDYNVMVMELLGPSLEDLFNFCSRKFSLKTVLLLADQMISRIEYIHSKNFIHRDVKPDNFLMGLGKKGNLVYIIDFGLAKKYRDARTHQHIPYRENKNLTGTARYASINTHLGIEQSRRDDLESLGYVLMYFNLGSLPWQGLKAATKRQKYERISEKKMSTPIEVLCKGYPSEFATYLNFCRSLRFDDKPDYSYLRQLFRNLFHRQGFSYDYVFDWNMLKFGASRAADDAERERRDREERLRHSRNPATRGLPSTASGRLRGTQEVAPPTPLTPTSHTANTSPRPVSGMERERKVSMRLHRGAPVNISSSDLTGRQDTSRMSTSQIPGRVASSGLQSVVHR

GAK = target: T2, GAK (Homo sapiens, UniProt O14976)
T2 sequence (O14976 1-1311): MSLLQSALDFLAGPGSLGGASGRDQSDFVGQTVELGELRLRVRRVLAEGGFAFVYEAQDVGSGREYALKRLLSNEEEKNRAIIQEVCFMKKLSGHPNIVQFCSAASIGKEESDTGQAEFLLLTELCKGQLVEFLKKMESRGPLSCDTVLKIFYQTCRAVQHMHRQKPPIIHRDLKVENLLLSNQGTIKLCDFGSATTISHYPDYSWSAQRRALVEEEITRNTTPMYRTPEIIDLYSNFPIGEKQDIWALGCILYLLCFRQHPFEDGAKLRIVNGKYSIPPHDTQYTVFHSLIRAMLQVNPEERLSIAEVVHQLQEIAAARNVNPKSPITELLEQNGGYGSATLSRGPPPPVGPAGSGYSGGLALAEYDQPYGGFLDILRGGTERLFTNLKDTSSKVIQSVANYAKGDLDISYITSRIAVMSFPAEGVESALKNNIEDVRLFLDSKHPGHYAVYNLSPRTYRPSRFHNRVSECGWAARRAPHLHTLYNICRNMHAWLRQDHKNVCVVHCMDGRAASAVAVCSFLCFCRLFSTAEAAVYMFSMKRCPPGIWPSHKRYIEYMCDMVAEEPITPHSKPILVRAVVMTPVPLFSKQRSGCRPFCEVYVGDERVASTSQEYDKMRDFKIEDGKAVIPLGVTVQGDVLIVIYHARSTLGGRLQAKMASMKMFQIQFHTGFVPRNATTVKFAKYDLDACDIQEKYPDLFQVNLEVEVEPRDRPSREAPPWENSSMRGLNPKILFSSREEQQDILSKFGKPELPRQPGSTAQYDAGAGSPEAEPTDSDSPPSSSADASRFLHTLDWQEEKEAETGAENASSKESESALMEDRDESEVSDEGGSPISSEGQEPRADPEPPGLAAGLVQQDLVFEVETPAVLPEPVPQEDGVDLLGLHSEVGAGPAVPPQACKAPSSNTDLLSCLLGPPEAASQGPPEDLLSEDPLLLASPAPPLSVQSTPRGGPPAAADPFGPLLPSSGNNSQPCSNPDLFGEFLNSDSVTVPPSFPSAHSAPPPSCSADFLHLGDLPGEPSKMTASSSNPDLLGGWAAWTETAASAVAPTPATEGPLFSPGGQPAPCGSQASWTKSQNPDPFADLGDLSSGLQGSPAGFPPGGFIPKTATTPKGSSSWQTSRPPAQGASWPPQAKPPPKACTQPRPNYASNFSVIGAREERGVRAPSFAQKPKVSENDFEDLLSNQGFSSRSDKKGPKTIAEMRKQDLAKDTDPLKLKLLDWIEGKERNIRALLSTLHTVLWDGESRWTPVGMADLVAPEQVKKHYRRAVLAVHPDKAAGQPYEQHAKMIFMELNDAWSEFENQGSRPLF

p38a, sequence (Q16539 whole entry): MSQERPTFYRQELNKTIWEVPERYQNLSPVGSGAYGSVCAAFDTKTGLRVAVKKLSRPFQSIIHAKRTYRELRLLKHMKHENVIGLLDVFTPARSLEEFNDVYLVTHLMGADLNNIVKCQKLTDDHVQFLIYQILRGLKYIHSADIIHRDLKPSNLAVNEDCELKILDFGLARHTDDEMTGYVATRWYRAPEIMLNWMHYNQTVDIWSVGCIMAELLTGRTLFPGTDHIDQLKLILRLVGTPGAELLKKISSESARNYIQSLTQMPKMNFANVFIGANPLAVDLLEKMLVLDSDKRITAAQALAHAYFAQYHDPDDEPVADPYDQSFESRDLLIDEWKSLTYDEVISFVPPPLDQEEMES
NDR2, sequence (Q9Y2H1 whole entry): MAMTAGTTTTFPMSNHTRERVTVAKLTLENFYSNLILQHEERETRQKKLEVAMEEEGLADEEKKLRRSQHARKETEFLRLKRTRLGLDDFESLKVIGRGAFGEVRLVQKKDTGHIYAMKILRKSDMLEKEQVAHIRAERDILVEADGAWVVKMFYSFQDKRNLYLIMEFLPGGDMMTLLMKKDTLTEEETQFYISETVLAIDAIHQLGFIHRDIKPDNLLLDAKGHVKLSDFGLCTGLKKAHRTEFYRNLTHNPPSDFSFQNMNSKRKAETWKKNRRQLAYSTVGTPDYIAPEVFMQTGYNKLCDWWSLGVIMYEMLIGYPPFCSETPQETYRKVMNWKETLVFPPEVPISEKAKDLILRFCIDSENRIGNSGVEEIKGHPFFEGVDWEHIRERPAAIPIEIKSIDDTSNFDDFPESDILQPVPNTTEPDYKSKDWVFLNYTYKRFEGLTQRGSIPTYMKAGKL
CLK3, sequence (P49761 whole entry): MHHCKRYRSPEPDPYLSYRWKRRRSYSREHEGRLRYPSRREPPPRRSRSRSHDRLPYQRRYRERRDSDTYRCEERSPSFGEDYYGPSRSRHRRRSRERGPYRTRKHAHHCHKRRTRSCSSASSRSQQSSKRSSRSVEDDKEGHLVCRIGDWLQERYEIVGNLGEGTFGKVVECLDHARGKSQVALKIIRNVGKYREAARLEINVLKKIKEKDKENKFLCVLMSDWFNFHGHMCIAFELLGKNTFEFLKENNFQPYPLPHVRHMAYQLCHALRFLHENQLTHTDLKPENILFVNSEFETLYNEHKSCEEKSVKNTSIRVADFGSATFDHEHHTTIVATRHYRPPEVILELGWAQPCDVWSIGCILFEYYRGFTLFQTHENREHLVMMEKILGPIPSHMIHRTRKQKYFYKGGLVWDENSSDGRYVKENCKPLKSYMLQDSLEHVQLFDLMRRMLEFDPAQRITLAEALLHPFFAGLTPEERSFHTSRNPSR

With `CNc1ncc2cc(-c3cc(Cl)ccc3Cl)c(=O)n(CCCCN)c2n1` [compound 8, 8-(4-Aminobutyl)-6-(2,5-dichlorophenyl)-2-(methylamino)pyrido[2,3-d]pyrimidin-7(8H)-one] the ΔTm at 10 µM (p38a; read-out: dTm 8) was 6 °C, the ΔTm at 10 µM (NDR2; read-out: dTm 8) was 0.4 °C and the ΔTm at 10 µM (CLK3; read-out: dTm 8) was 0.4 °C. For the same compound, the ΔTm at 10 µM (PLK4; read-out: dTm 8) was 0.5 °C, the ΔTm at 10 µM (CK1d; read-out: dTm 8) was 0 °C and the ΔTm at 10 µM (GAK; read-out: dTm 8) was 3.7 °C.
`CNc1ncc2cc(-c3cc(C(F)(F)F)ccc3Cl)c(=O)n(CCCCN)c2n1` [compound 9, 8-(4-Aminobutyl)-6-(2-chloro-5-(trifluoromethyl)phenyl)-2-(methylamino)pyrido[2,3-d]pyrimidin-7(8H)-one] gave a ΔTm at 10 µM (p38a; read-out: dTm 9) of 4.2 °C, a ΔTm at 10 µM (NDR2; read-out: dTm 9) of 0.1 °C and a ΔTm at 10 µM (CLK3; read-out: dTm 9) of 0.4 °C. For the same compound, the ΔTm at 10 µM (PLK4; read-out: dTm 9) was 0.3 °C, the ΔTm at 10 µM (CK1d; read-out: dTm 9) was 0 °C and the ΔTm at 10 µM (GAK; read-out: dTm 9) was 1 °C.
`CNc1ncc2cc(-c3cc(Cl)ccc3Br)c(=O)n(CCCCN)c2n1` [compound 10, 8-(4-Aminobutyl)-6-(2-bromo-5-chlorophenyl)-2-(methylamino)pyrido[2,3-d]pyrimidin-7(8H)-one] gave a ΔTm at 10 µM (p38a; read-out: dTm 10) of 6.1 °C, a ΔTm at 10 µM (NDR2; read-out: dTm 10) of 0.4 °C and a ΔTm at 10 µM (CLK3; read-out: dTm 10) of 0.4 °C. It also gave a ΔTm at 10 µM (PLK4; read-out: dTm 10) of 0.4 °C, a ΔTm at 10 µM (CK1d; read-out: dTm 10) of 0 °C and a ΔTm at 10 µM (GAK; read-out: dTm 10) of 3.3 °C.
Work on `CNc1ncc2cc(-c3cc(Br)ccc3Br)c(=O)n(CCCCN)c2n1` [compound 11, 8-(4-Aminobutyl)-6-(2,5-dibromophenyl)-2-(methylamino)pyrido[2,3-d]pyrimidin-7(8H)-one] yielded a ΔTm at 10 µM (p38a; read-out: dTm 11) of 6.4 °C, a ΔTm at 10 µM (NDR2; read-out: dTm 11) of 0.5 °C and a ΔTm at 10 µM (CLK3; read-out: dTm 11) of 0.4 °C. For the same compound, the ΔTm at 10 µM (PLK4; read-out: dTm 11) was 0.6 °C, the ΔTm at 10 µM (CK1d; read-out: dTm 11) was 0 °C and the ΔTm at 10 µM (GAK; read-out: dTm 11) was 3.3 °C.
Compound `CNc1ncc2cc(-c3cc(F)c(-c4cccc(C)n4)cc3F)c(=O)n(CCCCN)c2n1` [compound 12, 8-(4-Aminobutyl)-6-(2,5-difluoro-4-(6-methylpyridin-2-yl)phenyl)-2-(methylamino)pyrido[2,3-d]pyrimidin-7(8H)-one] has a ΔTm at 10 µM (p38a; read-out: dTm 12) of 0.4 °C, a ΔTm at 10 µM (NDR2; read-out: dTm 12) of 5.2 °C and a ΔTm at 10 µM (CLK3; read-out: dTm 12) of -0.3 °C. The ΔTm at 10 µM (PLK4; read-out: dTm 12) was 6.3 °C, the ΔTm at 10 µM (CK1d; read-out: dTm 12) was 0.6 °C and the ΔTm at 10 µM (GAK; read-out: dTm 12) was 7.6 °C.
